Consider two compounds from patent US8945397B2, “Methods of inhibiting cyanobacteria growth by administering gramine derivatives” (priority 2012, dated 2015).

The test system of data set [1] is M. Aeruginosa. The data set can be described thus: Liquid culture optical absorption assay (OD600) of M. aeruginosa growth, 15 days. It counts as cell-based, Microcystis aeruginosa. Conditions: 0.5 mg/L, Table 2 and FIG. 3. Here is the method:
To quantitatively measure M. Aeruginosa cell growth in responding to various gamine compounds, cell densities were determined by an optical absorption assay as measured by a spectrophotometer (Nanodrop 2000, Thermo Scientific). In the optical absorption assay, the absorbance of radiation (light) is measured as a function of frequency (wavelength). For this optical absorption assay, the algal cell density was determined at 600 nm wavelength. Equal amount of starting cells (optical density at wavelength 600 nm, OD600, was at 0.100 on Day 0) were placed in freshwater culture for 15 days of growth. After 15 days, the algae cell suspension is pipetted into a cuvette and placed within the spectrophotometer for the optical absorption assay.
There is a clear and distinct decrease in M. Aeruginosa algae growth when administered with 5,6-dichlogramine (Compound No. 9) and with 5,6,7-trichlorogramine (Compound No. 12) compared to M. Aeruginosa algae growth in control samples.

For a further data set, the system named is Arabidopsis thaliana. The data set can be described thus: Toxicity to Arabidopsis thaliana plants in petri dishes. Conditions: 8 mg/L in MS medium. It counts as in vivo. The method, then: The effects of both compounds were tested on Arabidopsis thaliana, a small flowering plant that is widely used as an experimental model plant for laboratory studies. A. thaliana seeds were placed in petri dishes containing standard plant growth media with one gramine compound added (about 8 mg/L). For the control sample, the seeds were placed on the identical growth media without any gramine compound added. All petri dishes containing A. thaliana were kept in a lighted plant growth chamber at 22° C. with cycles of 16-hr light and 8-hr dark. Seed germination and seedling development were closely monitored and documented every 24 hours.
FIGS. 8a and 8b show images of A. thaliana plants after 8 days of plant growth, or 8 days after germination. The A. thaliana plants were grown in petri dishes filled with Murashige and Skoog medium (MS plant growth medium containing both macronutrients, micronutrients, and vitamins) purchased from Sigma (Cat #M5519)).
FIGS. 9a and 9b show images of A. thaliana plants after 10 days of growth, or 10 days after germination. The A. thaliana plants were grown in petri dishes filled with Murashige and Skoog medium (MS plant growth medium containing both macronutrients, micronutrients, and vitamins) purchased from Sigma (Cat #M5519)).

Data set [2] deals with M. Aeruginosa. The data set can be described thus: Optical absorption assay of M. aeruginosa growth at varying concentrations, 8 days, with LC50 calculation. It is filed as cell-based, Microcystis aeruginosa. The note with it: for OD600 as % of the corresponding OD600 measurement of the control sample: 8 days; for OD600 of M. aeruginosa after 8 days: start OD600 0.1, control about 2.4; for LC50: Microcystis aeruginosa, 192 h, read-out: Lethal Concentration 50 (LC50). Here is the method:
(§1) Different concentrations of 5,6-dichlorogramine were administered to M. aeruginosa cells as indicated. M. aeruginosa cell density measurements were taken every 24 hours. […] During the first 3 days, the M. aeruginosa cell densities for the control sample and the 5,6-dichlorogramine samples were similar. But starting on day 4, there was larger differentiation in M. aeruginosa cell densities between the control samples and the 5,6-dichlorogramine administered samples. […] In contrast, the OD600 of M. aeruginosa after 8 days of exposure to 0.05 mg/L 5,6-dichlorogramine was about 0.9, only about 38% of the corresponding OD600 measurement of the control sample. The OD600 measurement for M. aeruginosa after 8 days of exposure to about 0.2 mg/L 5,6-dichlorogramine was about 0.6, only about 25% of the corresponding OD600 measurement of the control sample. The OD600 measurement for M. aeruginosa after 8 days of exposure to about 0.8 mg/L 5,6-dichlorogramine was about 0.3, only about 13% of the corresponding OD600 measurement of the control sample.
as §1, with “5,6,7-trichlorogramine” for “5,6-dichlorogramine”
LC50 is a common way to describe the median lethal concentration of an administered agent in a medium, such as air or water, needed to kill half of the organism population living within the medium. LC50 is a well-known method of describing the acute toxicity of an administered agent on the target organism population.
(§2) In FIG. 6, the optical density measurement (OD600) of the M. aeruginosa cells on day 8 was plotted against the administered 5,6-dichlorogramine concentration. […] Half of about 2.4 is about 1.2, and according to FIG. 6, the 1.2 optical density measurement corresponds to an approximately 0.03 mg/L 5,6-dichlorogramine concentration. Based on these calculations, the effective amount of 5,6-dichlorogramine to administer to control the growth and spread of M. aeruginosa algae in fresh water may be a 5,6-dichlorogramine concentration ranging between about 0.01 mg/L and about 0.05 mg/L, and may be more specifically about 0.03 mg/L.
as §2, with “7,” for “6,”, “(ODo)” for “(OD600)”, “5,6,7-trichlorogramine” for “5,6-dichlorogramine”

In brackets after ≈: the same amount, converted by molar mass.

For `CN(C)Cc1c[nH]c2cc(Cl)c(Cl)cc12` [Compound No. 9, 5,6-dichlorogramine], the “Inhibition of M. aeruginosa growth in words (liquid culture)” value in the data set on M. Aeruginosa [1] was “significantly inhibit the growth”. In the data set on Arabidopsis thaliana (8 days after germination), the “growth and development of A. thaliana versus control” value was “no growth or developmental difference”. Also, the “OD600 as % of the corresponding OD600 measurement of the control sample” value in the data set on M. Aeruginosa [2] (0.05 mg/L) is reported as “about 38%”; with M. Aeruginosa [2] (about 0.2 mg/L) it was “about 25%”; in the data set with M. Aeruginosa [2] (about 0.8 mg/L), “about 13%”. Moreover, the “OD600 of M. aeruginosa after 8 days” value with M. Aeruginosa [2] (0.05 mg/L) is reported as “about 0.9”; in the data set with M. Aeruginosa [2] (about 0.2 mg/L), “about 0.6”; in the data set with M. Aeruginosa [2] (about 0.8 mg/L), “about 0.3”. In addition, in the data set on M. Aeruginosa [2], the LC50 is about 0.03 µg/mL (≈ 0.123 µM).
`CN(C)Cc1c[nH]c2c(Cl)c(Cl)c(Cl)cc12` [Compound No. 12, 5,6,7-trichlorogramine]: the “Inhibition of M. aeruginosa growth in words (liquid culture)” value in the data set on M. Aeruginosa [1] was “significantly inhibit the growth”. The “growth and development of A. thaliana versus control” value in the data set with Arabidopsis thaliana (10 days after germination) is reported as “no growth or developmental difference”. Further, the “OD600 as % of the corresponding OD600 measurement of the control sample” value is “about 38%” in the data set with M. Aeruginosa [2] (0.05 mg/L), “about 25%” with M. Aeruginosa [2] (about 0.2 mg/L) and “about 13%” in the data set on M. Aeruginosa [2] (about 0.8 mg/L). Moreover, the “OD600 of M. aeruginosa after 8 days” value was “about 0.9” in the data set with M. Aeruginosa [2] (0.05 mg/L), “about 0.6” in the data set with M. Aeruginosa [2] (about 0.2 mg/L) and “about 0.3” in the data set with M. Aeruginosa [2] (about 0.8 mg/L). For the same compound, the LC50 in the data set with M. Aeruginosa [2] was about 0.03 µg/mL (≈ 0.108 µM).
